Test results taken from patent US6737383B1, “Herbicidal oxadiazolidines” (priority 1999, dated 2004).

Columns and labels:
rice = assay: Test B flood test rice; type: in vivo, Oryza sativa
How it was run: (§1)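 Flood test on plants grown to the 2-leaf stage; treated plants kept in greenhouse twelve to sixteen days, then visually rated against controls on a 0 (no effect) to 10 (complete control) scale.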

sugar beet = assay: Test B pre/postemergence sugar beet; type: in vivo, Beta vulgaris
How it was run: (§2)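 Test chemicals in a non-phytotoxic solvent mixture with surfactant were sprayed preemergence onto planted seeds and postemergence onto plants 2 to 18 cm tall (1- to 4-leaf stage). After twelve to sixteen days in a greenhouse, injury was visually rated against untreated controls from 0 (no effect) to 10 (complete control).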

smallflower flatsedge = assay: Test B flood test smallflower flatsedge; type: in vivo, Cyperus difformis
How it was run: as §1

surinam grass = assay: Test B pre/postemergence surinam grass; type: in vivo, Brachiaria decumbens
How it was run: as §2

cocklebur = assay: Test B pre/postemergence cocklebur; type: in vivo, Xanthium strumarium
How it was run: as §2

rape = assay: Test B pre/postemergence rape; type: in vivo, Brassica napus
How it was run: as §2

soybean = assay: Test B pre/postemergence soybean; type: in vivo, Glycine max
How it was run: as §2

giant foxtail = assay: Test B pre/postemergence giant foxtail; type: in vivo, Setaria faberii
How it was run: as §2

crabgrass = assay: Test B pre/postemergence crabgrass; type: in vivo, Digitaria sanguinalis
How it was run: as §2

bamyardgrass = assay: Test B flood test barnyardgrass; type: in vivo, Echinochloa crus-galli
How it was run: as §1

corn = assay: Test B pre/postemergence corn; type: in vivo, Zea mays
How it was run: as §2

pigweed = assay: Test B pre/postemergence pigweed; type: in vivo, Amaranthus retroflexus
How it was run: as §2

duck salad = assay: Test B flood test duck salad; type: in vivo, Heteranthera limosa
How it was run: as §1

blackgrass = assay: Test B pre/postemergence blackgrass; type: in vivo, Alopecurus myosuroides
How it was run: as §2

wheat = assay: Test B pre/postemergence wheat; type: in vivo, Triticum aestivum
How it was run: as §2

purple nutsedge = assay: Test B pre/postemergence purple nutsedge; type: in vivo, Cyperus rotundus
How it was run: as §2

[1] = Rate 62 g/ha, headed Pre-emergence (flood test species), scale 0 to 10 (0 no effect, 10 complete control)
[2] = Rate 125 g/ha, Pre-emergence, flood test species, scale 0 to 10 where 0 is no effect and 10 is complete control
[3] = Rate 250 g/ha, Pre-emergence, flood-test species, scale 0 to 10, 0 is no effect, 10 is complete control
[4] = Rate 500 g/ha, Pre-emergence, flood test species, scale 0 to 10 (0 no effect, 10 complete control)
[5] = Preemergence, Rate 62 g/ha, scale of 0 to 10 where 0 is no effect and 10 is complete control
[6] = Preemergence, Rate 250 g/ha, scale of 0 to 10 where 0 is no effect and 10 is complete control
[7] = Preemergence, Rate 500 g/ha, scale of 0 to 10 where 0 is no effect and 10 is complete control
[8] = Rate 125 g/ha, Postemergence, scale of 0 to 10 where 0 is no effect and 10 is complete control
[9] = Rate 125 g/ha, Preemergence, scale of 0 to 10 where 0 is no effect and 10 is complete control
[10] = Rate 250 g/ha, Postemergence, scale of 0 to 10 where 0 is no effect and 10 is complete control
[11] = Rate 500 g/ha, Postemergence, scale 0 to 10, 0 no effect, 10 complete control
[12] = Rate 62 g/ha, Postemergence, scale of 0 to 10 where 0 is no effect and 10 is complete control

Cc1cccc(C)c1-n1c(=O)on(C(=O)N(C(C)C)C2C=CCCC2)c1=O (centres unmarked) [Compound 273]
7: Plant response rating, Sugarbeets (sugar beet; [7]) | Giant foxtail plant response rating (giant foxtail; [5])
1: Plant response rating, Crabgrass (crabgrass; [10]) | Blackgrass plant response rating (blackgrass; [8])
4: Soybean plant response rating (soybean; [11]) | Barnyardgrass plant response rating (bamyardgrass; [2]) | Barnyardgrass plant response rating (bamyardgrass; [3]) | Redroot pigweed plant response rating (pigweed; [11]) | Blackgrass plant response rating (blackgrass; [11])
8: Giant foxtail plant response rating (giant foxtail; [6]) | Giant foxtail plant response rating (giant foxtail; [9])
0: Rice plant response rating (rice; [1]) | Rice plant response rating (rice; [2]) | Rice plant response rating (rice; [3]) | Rice plant response rating (rice; [4]) | Sugarbeets plant response rating (sugar beet; [5]) | Sugarbeets plant response rating (sugar beet; [8]) | Sugarbeets plant response rating (sugar beet; [9]) | Plant response rating, Sugarbeets (sugar beet; [10]) | Sugarbeets plant response rating (sugar beet; [11]) | S. Flatsedge plant response rating (smallflower flatsedge; [1]) | S. Flatsedge plant response rating (smallflower flatsedge; [2]) | S. Flatsedge plant response rating (smallflower flatsedge; [3]) | S. Flatsedge plant response rating (smallflower flatsedge; [4]) | B. signalgrass plant response rating (surinam grass; [5]) | B. signalgrass plant response rating (surinam grass; [12]) | B. signalgrass plant response rating (surinam grass; [8]) | B. signalgrass plant response rating (surinam grass; [9]) | Plant response rating, B. signalgrass (surinam grass; [10]) | B. signalgrass plant response rating (surinam grass; [11]) | Cocklebur plant response rating (cocklebur; [5]) | Cocklebur plant response rating (cocklebur; [6]) | Plant response rating, Cocklebur (cocklebur; [7]) | Cocklebur plant response rating (cocklebur; [12]) | Cocklebur plant response rating (cocklebur; [8]) | Cocklebur plant response rating (cocklebur; [9]) | Plant response rating, Cocklebur (cocklebur; [10]) | Cocklebur plant response rating (cocklebur; [11]) | Rape plant response rating (rape; [5]) | Rape plant response rating (rape; [6]) | Plant response rating, Rape (rape; [7]) | Rape plant response rating (rape; [8]) | Rape plant response rating (rape; [9]) | Plant response rating, Rape (rape; [10]) | Rape plant response rating (rape; [11]) | Soybean plant response rating (soybean; [5]) | Soybean plant response rating (soybean; [6]) | Plant response rating, Soybean (soybean; [7]) | Soybean plant response rating (soybean; [9]) | Giant foxtail plant response rating (giant foxtail; [8]) | Plant response rating, Giant foxtail (giant foxtail; [10]) | Crabgrass plant response rating (crabgrass; [8]) | Barnyardgrass plant response rating (bamyardgrass; [1]) | Corn plant response rating (corn; [5]) | Corn plant response rating (corn; [6]) | Plant response rating, Corn (corn; [7]) | Corn plant response rating (corn; [12]) | Corn plant response rating (corn; [8]) | Corn plant response rating (corn; [9]) | Plant response rating, Corn (corn; [10]) | Corn plant response rating (corn; [11]) | Redroot pigweed plant response rating (pigweed; [5]) | Redroot pigweed plant response rating (pigweed; [6]) | Plant response rating, Redroot pigweed (pigweed; [7]) | Redroot pigweed plant response rating (pigweed; [8]) | Redroot pigweed plant response rating (pigweed; [9]) | Ducksalad plant response rating (duck salad; [1]) | Ducksalad plant response rating (duck salad; [2]) | Ducksalad plant response rating (duck salad; [3]) | Ducksalad plant response rating (duck salad; [4]) | Blackgrass plant response rating (blackgrass; [5]) | Plant response rating, Blackgrass (blackgrass; [7]) | Blackgrass plant response rating (blackgrass; [12]) | Blackgrass plant response rating (blackgrass; [9]) | Wheat plant response rating (wheat; [5]) | Wheat plant response rating (wheat; [6]) | Plant response rating, Wheat (wheat; [7]) | Wheat plant response rating (wheat; [8]) | Wheat plant response rating (wheat; [9]) | Plant response rating, Wheat (wheat; [10]) | Wheat plant response rating (wheat; [11]) | Nutsedge plant response rating (purple nutsedge; [6]) | Plant response rating, Nutsedge (purple nutsedge; [7]) | Nutsedge plant response rating (purple nutsedge; [8]) | Plant response rating, Nutsedge (purple nutsedge; [10]) | Nutsedge plant response rating (purple nutsedge; [11])
9: Plant response rating, Giant foxtail (giant foxtail; [7]) | Plant response rating, Crabgrass (crabgrass; [7])
3: Plant response rating, B. signalgrass (surinam grass; [7]) | Soybean plant response rating (soybean; [8]) | Plant response rating, Soybean (soybean; [10]) | Crabgrass plant response rating (crabgrass; [11]) | Barnyardgrass plant response rating (bamyardgrass; [4])
6: Sugarbeets plant response rating (sugar beet; [6]) | Crabgrass plant response rating (crabgrass; [6]) | Crabgrass plant response rating (crabgrass; [9])
2: B. signalgrass plant response rating (surinam grass; [6]) | Giant foxtail plant response rating (giant foxtail; [11]) | Crabgrass plant response rating (crabgrass; [5]) | Plant response rating, Redroot pigweed (pigweed; [10]) | Plant response rating, Blackgrass (blackgrass; [10])
